What all share (assay type): biochemical
The target of one assay is PKA (Homo sapiens, UniProt P17612). Description: PKA inhibition assay, coupled enzyme. To be noted: average Ki if more than one determined. The method, then:
Compounds were screened for their ability to inhibit PKA using a standard coupled enzyme assay (Fox et al., Protein Sci, 1998, 7, 2249). Assays were carried out in a mixture of 100 mM HEPES (pH 7.5), 10 mM MgCl2, 25 mM NaCl, 1 mM DTT and 3% DMSO. Final substrate concentrations in the assay were 50 μM ATP (Sigma Chemicals) and 80 μM peptide (Kemptide, American Peptide, Sunnyvale, Calif.). Assays were carried out at 30° C. and 18 nM PKA. Final concentrations of the components of the coupled enzyme system were 2.5 mM phosphoenolpyruvate, 300 μM NADH, 30 μg/ml pyruvate kinase and 10 μg/ml lactate dehydrogenase.
An assay stock buffer solution was prepared containing all of the reagents listed above, with the exception of ATP, and the test compound of the present invention. […] The plate was preincubated for 10 minutes at 30° C. and the reaction initiated by addition of 5 μl of ATP (final concentration 50 μM). Initial reaction rates were determined with a Molecular Devices SpectraMax Plus plate reader over a 15 minute time course. IC50 and Ki data were calculated from non-linear regression analysis using the Prism software package (GraphPad Prism version 3.0a for Macintosh, GraphPad Software, San Diego Calif., USA).

In a further assay the target is ROCK I (AA 6-553) (Homo sapiens, UniProt Q13464). The assay can be described thus: ROCK inhibition assay, coupled enzyme system ("Enzyme"). To be noted: enzyme-linked assay; average Ki if more than one determined. As for the experimental part:
Reactions were carried out in a solution containing 100 mM HEPES (pH 7.5), 10 mM MgCl2, 25 mM NaCl, 2 mM DTT and 1.5% DMSO.
(§1) If more than one value of Ki has been determined, the average Ki is indicated. If no value is indicated, then the Ki was not determined.

Another assay addresses ROCK (Homo sapiens, UniProt Q13464). Description: ROCK radioactive assay ("33P"). To be noted: radioactive assay; average Ki if more than one determined; read-out: ROCK 33P Ki.
From the text: as §1

A value given as a limit tells only on which side of the number the result lay.

Chain of ROCK I (AA 6-553) (Q13464 6-553, species assumed): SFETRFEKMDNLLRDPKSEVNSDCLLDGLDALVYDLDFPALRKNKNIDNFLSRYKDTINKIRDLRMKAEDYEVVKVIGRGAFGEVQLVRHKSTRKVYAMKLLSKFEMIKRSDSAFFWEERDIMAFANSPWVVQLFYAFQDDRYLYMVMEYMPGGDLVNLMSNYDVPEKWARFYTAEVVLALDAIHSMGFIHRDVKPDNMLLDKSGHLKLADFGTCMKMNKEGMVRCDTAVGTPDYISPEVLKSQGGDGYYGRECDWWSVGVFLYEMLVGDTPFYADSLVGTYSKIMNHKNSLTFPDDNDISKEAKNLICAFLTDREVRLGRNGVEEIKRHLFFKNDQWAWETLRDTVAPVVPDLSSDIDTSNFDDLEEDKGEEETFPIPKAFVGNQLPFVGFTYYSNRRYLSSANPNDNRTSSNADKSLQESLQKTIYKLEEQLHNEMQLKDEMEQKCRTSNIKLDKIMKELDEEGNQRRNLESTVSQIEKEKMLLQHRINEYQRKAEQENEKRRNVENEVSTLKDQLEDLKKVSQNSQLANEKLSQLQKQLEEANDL
Chain of ROCK (Q13464 whole entry): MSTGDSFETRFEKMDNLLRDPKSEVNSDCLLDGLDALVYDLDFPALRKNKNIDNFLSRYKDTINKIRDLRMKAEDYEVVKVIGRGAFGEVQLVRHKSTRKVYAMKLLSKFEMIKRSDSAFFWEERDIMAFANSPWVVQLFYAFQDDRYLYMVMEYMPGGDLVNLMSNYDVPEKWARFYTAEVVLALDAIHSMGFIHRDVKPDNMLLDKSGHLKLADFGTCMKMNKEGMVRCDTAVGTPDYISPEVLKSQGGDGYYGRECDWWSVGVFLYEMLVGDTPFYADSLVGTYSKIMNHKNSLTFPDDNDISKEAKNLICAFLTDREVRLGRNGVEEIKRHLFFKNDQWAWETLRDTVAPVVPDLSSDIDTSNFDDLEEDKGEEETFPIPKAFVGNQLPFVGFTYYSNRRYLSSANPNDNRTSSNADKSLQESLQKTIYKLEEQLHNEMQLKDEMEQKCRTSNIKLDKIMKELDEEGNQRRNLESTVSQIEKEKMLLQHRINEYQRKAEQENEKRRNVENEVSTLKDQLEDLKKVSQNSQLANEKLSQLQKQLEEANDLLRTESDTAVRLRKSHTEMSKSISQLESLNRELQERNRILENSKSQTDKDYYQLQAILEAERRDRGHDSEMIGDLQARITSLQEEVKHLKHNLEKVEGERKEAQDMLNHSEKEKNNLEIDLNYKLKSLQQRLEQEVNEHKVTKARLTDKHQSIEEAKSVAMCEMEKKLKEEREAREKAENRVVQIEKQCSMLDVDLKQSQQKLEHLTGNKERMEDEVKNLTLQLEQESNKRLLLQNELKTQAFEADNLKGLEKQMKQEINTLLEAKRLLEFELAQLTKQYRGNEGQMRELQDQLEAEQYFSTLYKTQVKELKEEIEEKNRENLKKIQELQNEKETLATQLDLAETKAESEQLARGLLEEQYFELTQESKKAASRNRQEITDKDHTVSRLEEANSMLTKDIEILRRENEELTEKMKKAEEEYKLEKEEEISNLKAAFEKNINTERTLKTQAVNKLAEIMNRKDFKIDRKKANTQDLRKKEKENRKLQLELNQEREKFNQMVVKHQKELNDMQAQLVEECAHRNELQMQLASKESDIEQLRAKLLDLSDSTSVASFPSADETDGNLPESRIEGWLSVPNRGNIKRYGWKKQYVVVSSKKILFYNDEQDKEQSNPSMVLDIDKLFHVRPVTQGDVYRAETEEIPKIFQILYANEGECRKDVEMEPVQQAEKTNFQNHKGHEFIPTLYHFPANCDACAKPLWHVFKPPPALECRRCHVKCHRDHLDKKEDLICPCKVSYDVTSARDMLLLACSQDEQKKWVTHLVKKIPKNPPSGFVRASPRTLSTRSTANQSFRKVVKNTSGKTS

As a reminder, the Ki is a dissociation constant, usually derived from enzyme kinetics or from competition with a known ligand. Take `O=C(Cc1ccccc1F)Nc1nc(-c2c[nH]c3ncccc23)cs1` [I-3]: the Ki at PKA and at ROCK I (AA 6-553) was below 500 nM each time.
Regarding `O=C(Cc1ccc(F)cc1)Nc1nc(-c2c[nH]c3ncccc23)cs1` [I-4], the Ki on PKA and on ROCK I (AA 6-553) was below 500 nM throughout.
With `O=C(Cc1ccc(F)cc1F)Nc1nc(-c2c[nH]c3ncccc23)cs1` [I-6], the Ki at PKA and at ROCK I (AA 6-553) was below 500 nM in each case.
On to `O=C(CCc1ccccc1)Nc1nc(-c2c[nH]c3ncccc23)cs1` [I-7], for which the Ki at PKA and on ROCK I (AA 6-553) was below 500 nM throughout.
On to `CC(C)(C)OC(=O)N1CCC(CCCOc2cccc(CC(=O)Nc3nc(-c4c[nH]c5ncccc45)cs3)c2)CC1` [I-9], for which the inhibition constant (Ki) on PKA was 500 to 5000 nM; on ROCK I (AA 6-553), below 500 nM.
In the same order, the values of `CS(=O)(=O)Oc1cccc(CC(=O)Nc2nc(-c3c[nH]c4ncccc34)cs2)c1` [I-10] are below 500 nM and below 500 nM.
`O=C(Cc1cc2c(cc1Cl)OCO2)Nc1nc(-c2c[nH]c3ncccc23)cs1` [I-13]: the Ki on PKA and at ROCK I (AA 6-553) was below 500 nM each time.
Consider `COc1ccc(CC(=O)Nc2nc(-c3c[nH]c4ncccc34)cs2)c(Cl)c1` [I-18], for which the Ki at PKA and on ROCK I (AA 6-553) was below 500 nM each time.
Take `COc1cccc(CC(=O)Nc2nnc(-c3c[nH]c4ncccc34)s2)c1` [I-21]: the Ki at PKA and at ROCK I (AA 6-553) was below 500 nM throughout.
Consider `O=C(Cc1ccc(F)cc1F)Nc1nnc(-c2c[nH]c3ncccc23)s1` [I-22], for which the Ki at PKA and at ROCK I (AA 6-553) was below 500 nM each time.
As to `O=C(Cc1ccccc1F)Nc1nnc(-c2c[nH]c3ncccc23)s1` [I-23], the Ki on PKA and at ROCK I (AA 6-553) was below 500 nM throughout.
Consider `c1cnc2[nH]cc(-c3csc(NC4CC4)n3)c2c1` [II-3], for which the Ki on PKA and on ROCK I (AA 6-553) was 500 to 5000 nM each time.
Turning to `O=C(Cc1cccc(S(=O)(=O)NC2CC2)c1)Nc1nc(-c2c[nH]c3ncccc23)cs1` [II-6], the inhibitory constant (Ki) on PKA and at ROCK I (AA 6-553) was below 500 nM in each case.
Turning to `O=C(Cc1ccc(F)cc1)Nc1nnc(-c2c[nH]c3ncccc23)s1` [II-7], the Ki at PKA and on ROCK I (AA 6-553) was below 500 nM throughout.
With `O=C(Cc1ccccc1)Nc1nnc(-c2c[nH]c3ncccc23)s1` [II-8], the Ki on PKA and at ROCK I (AA 6-553) was below 500 nM throughout.
On to `CS(=O)(=O)Nc1cccc(CC(=O)Nc2nnc(-c3c[nH]c4ncccc34)s2)c1` [II-9], for which the Ki on PKA and on ROCK I (AA 6-553) was below 500 nM each time.
Turning to `O=C(Cc1cc2c(cc1Cl)OCO2)Nc1nnc(-c2c[nH]c3ncccc23)s1` [II-10], the inhibition constant (Ki) at PKA is 500 to 5000 nM; at ROCK I (AA 6-553), below 500 nM.
On to `O=C(Cc1ccccc1F)Nc1nc(-c2c[nH]c3nccc(F)c23)cs1` [II-11], for which the Ki on PKA and on ROCK I (AA 6-553) was below 500 nM throughout.
Take `O=C(Cc1ccc(F)cc1)Nc1nc(-c2c[nH]c3nccc(F)c23)cs1` [II-12]: the Ki on PKA and on ROCK I (AA 6-553) was below 500 nM in each case.
Turning to `O=C(Cc1ccc(F)cc1F)Nc1nc(-c2c[nH]c3nccc(F)c23)cs1` [II-13], the Ki on PKA and on ROCK I (AA 6-553) was below 500 nM throughout.
Consider `CS(=O)(=O)Nc1cccc(CC(=O)Nc2nc(-c3c[nH]c4nccc(F)c34)cs2)c1` [II-14], for which the Ki is 500 to 5000 nM on PKA and below 500 nM at ROCK I (AA 6-553).
Regarding `O=C(CCc1ccccc1)Nc1nc(-c2c[nH]c3nccc(F)c23)cs1` [II-15], the Ki on PKA and at ROCK I (AA 6-553) was below 500 nM each time.
Take `O=C(Cc1ccccc1)Nc1nc(-c2c[nH]c3nccc(F)c23)cs1` [II-16]: the Ki at PKA and on ROCK I (AA 6-553) was below 500 nM each time.
As to `O=C(Cc1cccc(OCCCC2CCNCC2)c1)Nc1nc(-c2c[nH]c3nccc(F)c23)cs1` [II-17], the inhibitory constant (Ki) at PKA is 500 to 5000 nM; on ROCK I (AA 6-553), below 500 nM.
On to `O=C(Cc1ccc2c(c1)OCO2)Nc1nc(-c2c[nH]c3nccc(F)c23)cs1` [II-18], for which the Ki on PKA and at ROCK I (AA 6-553) was below 500 nM throughout.
As to `COc1cccc(CC(=O)Nc2nc(-c3c[nH]c4nccc(F)c34)cs2)c1` [II-19], the Ki on PKA and on ROCK I (AA 6-553) was below 500 nM in each case.
Turning to `O=C(Cc1cc2c(cc1Cl)OCO2)Nc1nc(-c2c[nH]c3nccc(F)c23)cs1` [II-20], the Ki on PKA and on ROCK I (AA 6-553) was below 500 nM each time.
At ROCK I (AA 6-553), `COc1cccc(CNC(=O)c2csc(-c3c[nH]c4ncccc34)n2)c1` [II-21] registered a Ki below 500 nM.
For `O=C(Cc1cccc(OCCCC2CCNCC2)c1)Nc1nnc(-c2c[nH]c3ncccc23)s1` [II-22], the Ki at ROCK I (AA 6-553) was below 500 nM.
As for `COc1cccc(CC(=O)Nc2cc(-c3c[nH]c4ncccc34)cs2)c1` [II-23], the Ki on PKA and on ROCK I (AA 6-553) was below 500 nM throughout.
As for `CCN(CC)S(=O)(=O)c1cccc(CC(=O)Nc2nc(-c3c[nH]c4ncccc34)cs2)c1` [II-24], the values for the Ki at PKA and at ROCK I (AA 6-553) were 500 to 5000 nM and below 500 nM, respectively.
In the same order, the values of `O=C(Cc1cccc(S(=O)(=O)N2CCNCC2)c1)Nc1nc(-c2c[nH]c3ncccc23)cs1` [II-25] are below 500 nM and below 500 nM.
The matching figures for `O=C(Cc1cccc(S(=O)(=O)N2CCOCC2)c1)Nc1nc(-c2c[nH]c3ncccc23)cs1` [II-26]: 500 to 5000 nM and below 500 nM.
In the same order, the values of `CS(=O)(=O)Nc1cccc(CC(=O)N(c2nc(-c3c[nH]c4ncccc34)cs2)C2CC2)c1` [II-27] are below 500 nM and below 500 nM.
Turning to `O=C(NCc1ccc(F)cc1F)c1ccc(-c2c[nH]c3ncccc23)s1` [II-28], the Ki at PKA and at ROCK I (AA 6-553) was below 500 nM throughout.
In the case of `O=C(NCc1ccccc1)c1ccc(-c2c[nH]c3ncccc23)s1` [II-29], the Ki on PKA and on ROCK I (AA 6-553) was below 500 nM in each case.
As for `COc1cccc(CNC(=O)c2ccc(-c3c[nH]c4ncccc34)s2)c1` [II-30], the Ki on PKA and at ROCK I (AA 6-553) was below 500 nM each time.
`O=C(NCCc1ccccc1)c1ccc(-c2c[nH]c3ncccc23)s1` [II-31]: the inhibition constant (Ki) on PKA and on ROCK I (AA 6-553) was below 500 nM in each case.
For the compound `O=C(NCCc1cccc(F)c1)c1ccc(-c2c[nH]c3ncccc23)s1` [II-32], the Ki on PKA and on ROCK I (AA 6-553) was below 500 nM in each case.
On to `CS(=O)(=O)Nc1cccc(CC(=O)Nc2cc(-c3c[nH]c4ncccc34)cs2)c1` [II-33], for which the Ki at PKA and on ROCK I (AA 6-553) was below 500 nM throughout.
For `Nc1ccc(CC(=O)Nc2nc(-c3c[nH]c4ncccc34)cs2)c(Cl)c1` [II-34], the Ki on PKA and on ROCK I (AA 6-553) was below 500 nM in each case.
`CCS(=O)(=O)Nc1ccc(CC(=O)Nc2nc(-c3c[nH]c4ncccc34)cs2)c(Cl)c1` [II-35]: the figures for the Ki at PKA and on ROCK I (AA 6-553) were 500 to 5000 nM and below 500 nM, respectively.
As for `O=C(Cc1cccc(OCCCN2CCNCC2)c1)Nc1nc(-c2c[nH]c3nccc(F)c23)cs1` [II-36], the Ki at PKA is 500 to 5000 nM; on ROCK I (AA 6-553), below 500 nM.
As for `CN1CCN(CCCOc2cccc(CC(=O)Nc3nc(-c4c[nH]c5nccc(F)c45)cs3)c2)CC1` [II-37], the figures for the Ki at PKA and at ROCK I (AA 6-553) were 500 to 5000 nM and below 500 nM, respectively.
Take `O=C(Cc1cccc(OCCCn2ccnc2)c1)Nc1nc(-c2c[nH]c3nccc(F)c23)cs1` [II-38]: the Ki on PKA was 500 to 5000 nM; at ROCK I (AA 6-553) it was below 500 nM.
Take `NC(=O)c1cccc(CC(=O)Nc2nc(-c3c[nH]c4ncccc34)cs2)c1` [II-41]: the Ki on PKA and on ROCK I (AA 6-553) was below 500 nM throughout.
For the compound `O=C(Cc1cccc(S(=O)(=O)N[C@H]2CCOC2)c1)Nc1nc(-c2c[nH]c3ncccc23)cs1` [II-42], the Ki on PKA and at ROCK I (AA 6-553) was below 500 nM in each case.
In the case of `CC(=O)N1[C@H](C)CN(c2nc(-c3c[nH]c4ncc(Cl)cc34)cs2)C[C@@H]1C` [II-43], the Ki at PKA and at ROCK I (AA 6-553) was 500 to 5000 nM throughout.
`O=C(Cc1ccccc1F)N(c1nc(-c2c[nH]c3ncccc23)cs1)C1CC1` [II-44]: the Ki on PKA and at ROCK I (AA 6-553) was below 500 nM in each case.
Regarding `O=C(Cc1ccc(F)cc1F)N(c1nc(-c2c[nH]c3ncccc23)cs1)C1CC1` [II-45], the Ki on PKA and at ROCK I (AA 6-553) was below 500 nM throughout.
As for `O=C(Nc1nc(-c2c[nH]c3ncccc23)cs1)NC1CCC(C(=O)O)CC1` (centres unmarked) [II-239], the results for the Ki on ROCK and on PKA were below 500 nM and 500 to 5000 nM, respectively.
In the case of `CN(C)C(=O)Nc1nc(-c2c[nH]c3ncccc23)cs1` [II-240], the Ki on ROCK and at PKA was 500 to 5000 nM throughout.
`O=C(Nc1nc(-c2c[nH]c3ncccc23)cs1)N1CCCC1` [II-241]: the inhibition constant (Ki) at ROCK and at PKA was 500 to 5000 nM throughout.
On to `CC(CN(C)C)NC(=O)Nc1nc(-c2c[nH]c3ncccc23)cs1` (centres unmarked) [II-242], for which the Ki at ROCK and on PKA was 500 to 5000 nM throughout.
With `O=C(Nc1nc(-c2c[nH]c3ncccc23)cs1)N1CCNCC1` [II-243], the Ki on ROCK and on PKA was 500 to 5000 nM in each case.
With `CC(C)NC(=O)Nc1nc(-c2c[nH]c3ncccc23)cs1` [II-244], the Ki is below 500 nM on ROCK and 500 to 5000 nM at PKA.

Values taken from patent US7514448B2, “Azaindoles useful as inhibitors of rock and other protein kinases” (Vertex Pharmaceuticals Incorporated, priority 2004, dated 2009).
